Data: patent publication US20200000872A1, “A COMPOSITION COMPRISING AT LEAST ONE GNRH ANTAGONIST” (ANTEV LIMITED, priority 2017, published 2020)
Where a name gives a salt, the structure may show the parent alone. Non-standard residues stand in square brackets, D forms with d. Residues, ends and D or L forms follow the SMILES beside them. Phe(4-Cl) = N[C@@H](Cc1ccc(Cl)cc1)C(=O)O; dPhe(4-Cl) = N[C@H](Cc1ccc(Cl)cc1)C(=O)O; d2Nal = N[C@H](Cc1ccc2ccccc2c1)C(=O)O; d(hCit) = NC(=O)NCCCC[C@@H](N)C(=O)O; Lys(iPr) = CC(C)NCCCC[C@H](N)C(=O)O; d3Pal = N[C@H](Cc1cccnc1)C(=O)O

Columns and labels:
[1] = Phase I study EP-24332T-A004, repeated s.c. injections: safety and tolerability; type: in vivo, human; details: 2 s.c. doses of 60 mg or 90 mg at 24 h or 48 h interval
Description: In a second Phase I study (EP-24332T-A004), a second injection was administered 24 h or 48 h after the first in order to increase and prolong the initial peak, as well as increase the teverelix level and consequently the number of subjects castrated. As the previous Phase I study had shown 10 mg and 30 mg to be insufficient to provide a long-term suppression, 2 doses of 60 mg or 90 mg (6 subjects per group) or placebo (4 subjects) were administered at a 24 h interval and 2 doses of 90 mg at a 48 h interval. […] No critical safety findings were reported. […] The protocol of the study included 6 subjects who received 90 mg Teverelix TFA on D1; D2; D3.

[2] = Phase I study D-84812-Z012, single s.c. injection: pharmacokinetics of teverelix; type: in vivo, human; details: between the 60 mg and 90 mg doses
[3] = Phase I study D-84812-Z012, single s.c. injection: safety and tolerability; type: in vivo, human; details: doses of up to 90 mg, 32 healthy male volunteers
[4] = compared with degarelix; cited from earlier work

dose proportionality [2]	SMILES	local reactions at the injection sites [1]	tolerability [1]	tolerability [3]	local irritation at the administration site [4]
–	CC(=O)N[C@H](Cc1ccc2ccccc2c1)C(=O)N[C@@H](Cc1ccc(Cl)cc1)C(=O)N[C@H](Cc1cccnc1)C(=O)N[C@@H](CO)C(=O)N[C@H](Cc1ccc(O)cc1)C(=O)N[C@H](CCCCNC(N)=O)C(=O)N[C@@H](CC(C)C)C(=O)N[C@@H](CCCCNC(C)C)C(=O)N1CCC[C@H]1C(=O)N[C@H](C)C(N)=O [teverelix, Ac-D-Nal-D-pClPhe-D-Pal-Ser-Tyr-D-Hci-Leu-Lys(iPr)-Pro-D-Ala-NH2] (Ac-[d2Nal][Phe(4-Cl)][d3Pal]S[dY][d(hCit)]L[Lys(iPr)]P[dA]-NH2)	only mild local indurations	tolerated well	–	–
demonstrated	CC(=O)N[C@H](Cc1ccc2ccccc2c1)C(=O)N[C@H](Cc1ccc(Cl)cc1)C(=O)N[C@H](Cc1cccnc1)C(=O)N[C@@H](CO)C(=O)N[C@@H](Cc1ccc(O)cc1)C(=O)N[C@H](CCCCNC(N)=O)C(=O)N[C@@H](CC(C)C)C(=O)N[C@@H](CCCCNC(C)C)C(=O)N1CCC[C@H]1C(=O)N[C@H](C)C(N)=O [Teverelix TFA, teverelix trifluoroacetate] (Ac-[d2Nal][dPhe(4-Cl)][d3Pal]SY[d(hCit)]L[Lys(iPr)]P[dA]-NH2)	–	–	tolerated well	less local irritation at the administration site than degarelix
